# Assay results reported in US6617158B1, “Method for stimulating the production of fetal hemoglobin producing erythroid cells” (New England Medical Center, priority 1999, dated 2003).
# How the values were obtained:
# Assay type in all cases: cell-based, human
# [1] = test system: F+ cells (HbF-containing nucleated red cells) in cultures of mononuclear cells from adult blood; assay: Erythroid culture of adult blood mononuclear cells; proportions of F+ cells by two-color flow cytometry
# [2] = test system: F+ cells (HbF-containing nucleated red cells) in cultures of mononuclear cells from adult blood; assay: as above; remark: listed apart in the source
# Protocol: (§1) Cells are fixed with 5% formaldehyde in PBS at 37° C. for 1 h, exposed to 100% methanol for 5 min at room temperature, then permeabilized in Solution B of the Caltag Fix & Perm kit during incubation with phycoerythrin-conjugated antibodies to the gamma chain of hemoglobin (HbF) (Cortex) and fluorescein isothiocyanate-conjugated antibodies to the beta chain of hemoglobin (HbA) or to fluorescein isothiocyanate-conjugated antibodies specific for sickle cell hemoglobin (HbS) (Isolabs). After incubation, cells are washed and suspended in PBS with 1% formaldehyde and 0.1 μg/ml Hoechst 33342.
# (§2) Cells are processed in a Becton-Dickinson Vantage flow cytometer/cell sorter with dual laser excitation (UV and 488 nm). Intact nucleated cells are selected by gating on UV-excited Hoechst […] fluorescence (430 nm) which yielded DNA histograms as well as cell cycle information by BudR-induced fluorescence quenching. Bohmer, Cell Tissue Kinet. 12: 101-110 (1979). Phycoerythrin (PE) and Fluorescein isothiocyanate (FITC) are excited at 488 nm and measured at 530 nm and 575 nm, […]. Correlated fluorescence values are recorded with appropriate color compensation. The accuracy of color compensation over 4 logs of fluorescence values is limited. To obtain absolute cell counts from the relative particle counts that a flow cytometer provides, known amounts of fluorescent plastic beads (Coulter Immunobrite Level IV) are added to the cell suspensions. Bohmer, Cell Tissue Kinet. 17: 593-600 (1984).
# Blood samples were kept at room temperature and processed as soon as possible (between 2 h and 24 h) after collection. The blood was diluted 1:4 with phosphate buffered saline (PBS), the mononuclear cells isolated by density gradient (density 1.077), washed in PBS with 1% BSA (bovine serum albumin) and cultured without further processing in standard 6-well plates, 3-5 ml per well, at a maximum density of 0.3 million/ml. The standard medium (referred to as “control” medium) comprised a mixture of 2/3 Iscoves MDM and 1/3 RPMI1640, containing methylcellulose (0.9%), C—CHS (1%), EPO (1 U/ml), SCF (20 ng/ml), IL3 (10 ng/ml), insulin (3 μg/ml), iron-saturated transferring (70 μg/ml), mercaptoethanol ([…]). Cytokines were from R&D Systems, Minneapolis, Minn. or Genzyme, Cambridge, Mass.
# A relatively brief exposure to TGF-beta during the first few days of cell culture caused a lasting shift towards HbF expression with no reduction in subsequent clonal expansion (see data below). […]
# The effect of TGF-beta treatment on cell cultures was examined and compared to the effect of serum. […] On day 7, cultures containing hundreds of colonies were turned into single-cell suspensions and the correlated contents of HbA and HbF measured by flow cytometry (FIG. 1). […]
# [3] = test system: F+ and F-A+ cells in cultures of mononuclear cells from adult blood; assay: Absolute numbers of F+ and F-A+ cells per culture and long-term proliferation
# Protocol: FIG. 5A is an example of a time course from one experiment. Cultures were treated with TGF-beta for 4 days, then propagated without TGF-beta, with further subcultivation and dilution on days 7 (1:10), 10 (1:5) and 13 (1:5). Absolute numbers of F+ and F−A+ cells per culture were determined on days 7, 10, 13 and 16. Total cell numbers were calculated using preceding culture dilution factors in the following manner: at each time of analysis, some of the cells were removed for counting, those that go back into the culture after counting are seeded with a dilution of fresh medium, to avoid medium exhaustion. Therefore, the actual numbers in the plates increase only between seeding and harvest. To calculate cell production over the whole culture time, it is necessary to multiply the counted cell numbers in the plates with all previous culture dilution factors. Closed symbols depict data from F−A+ cells, open symbols show F+ cells, and triangles show TGF-beta-treated cultures, while circles show the controls.
# FIG. 5B is a graph indicating the TGF-beta-induced change of total F+ and F− cell numbers, shown as ratio of N(TGF)/N(CON). Cultures were treated with TGF-beta for 4 days., then propagated without TGF-beta, with further subcultivation and dilution on days 7 (1:10), 10 (1:5) and 13 (1:5). Absolute numbers of F+ and F−A+ cells per culture were determined on days 7, 10, 13 and 16. Individual experiments are distinguished by different symbols. […] Median values are indicated by horizontal bar.
# as §2
# Cultures that were treated with TGF-beta from day 0-4 were sub-cultivated again on days 7, 10 and 13, and the total numbers of F+ and F−A+ cells per culture were determined on days 7, 10, 13 and 16. […] Between day 7 and 10, both cell types in both cultures proliferated at approximately the same rate. After day 10, in control cultures, the proliferation decreased strongly and equally for both F+ and F−A+ cells, maintaining the ratio. No secondary colonies were seen following the subcultivation on day 13. In contrast, the proliferation in TGF-beta-treated cultures continued for much longer for both F+ and F−A+ cells. The F−A+ cell numbers were gradually reducing the gap with F+ cells, in agreement with the gradually decreasing proportions of F+ cells shown in FIG. 4. The number of days for which the proliferation of TGF-beta-treated cultures could be maintained was highly variable between donors and appeared to correlate with the initial numbers of clonogenic cells per ml of blood. […]
# [4] = test system: secondary erythroid colonies; assay: Secondary erythroid colony counts after re-seeding (cell cycle effect); conditions: first few days of treatment
# Protocol: Cell cultures were seeded in the presence (TGF) and absence (CON) of TGF-beta and on days 1, 2, 3 and 4 washed and re-seeded in the absence of TGF-beta. On day 9, the secondary colonies/clusters were counted and plotted as a function of the number of the day of treatment before reseeding. […] Statistics from 5 experiments are shown.
# To test the cell cycle effect of TGF-beta during the first 4 days of treatment, the numbers of secondary erythroid colonies that developed upon re-seeding the cultures after different duration of TGF-beta exposure were counted (FIG. 7). A decrease in the number of secondary colonies upon re-seeding would reflect a decrease in the number of divisions undergone by colony forming cells before the cultures were re-seeded as a single-cell suspension. However, the secondary colonies became smaller and more numerous, without much effect of TGF-beta. The numbers of secondary colonies began to increase between day 1 and 2, equally in TGF-beta and controls. Between days 3 and 4 the beginnings of inhibition by TGF-beta could be seen.
# [5] = test system: Mononuclear cells from one sickle cell patient; assay: Sickle cell erythropoiesis culture; HbF vs HbS flow cytometry profiles; conditions: continuous culture in 30% FCS or 10 ng/ml TGF-beta, day 7
# Protocol: as §1
# Mononuclear cells from one sickle cell patient were continuously cultured in 30% FCS or 10 ng/ml TGF-beta. The cells were labeled with the same antibodies to HbF but with antibodies specific for HbS instead of HbA.
molecule,measurement,setting,value
TGF-beta 3: form of transforming growth factor beta titrated against TGF-beta 1,relative potency to increase proportions of F+ cells,"[1]; titration, treatment began day 2, re-seeded day 4, F+ on day 7",in between TGF-beta 1 and TGF-beta 2
TGF-beta: recombinant human transforming growth factor beta-1,effect on proportions of F+ cells,"[2]; 10 ng/ml, exposure day 0-4 or continuous, analysis day 7",increased the proportions of F+ cells dramatically
same,increased proportions of F+ cells during further culture growth,"[2]; 4-day treatment, then control medium, re-seeded days 7 and 10",maintained
same,"proportions of F+ cells, plateau","[2]; as function of exposure time (0-4 days), analysed day 7, 30% FCS or TGF-beta",80%
same,total cell counts,[2]; continuous treatment up to day 7 (not the 4-day treatment),strongly reduced total cell counts
same,N(TGF)/N(CON) of F+ cells,"[3]; 2 (out of 5) experiments, proliferating beyond 3 weeks",exceeding 100
same,total numbers of F-A+ cells versus control cultures,"[3]; between days 7 and 10, treatment day 0-4",dramatically reduced
same,reduction of F-A+ cell numbers,"[3]; day 7, treatment day 0-4",ca. 10 fold
same,"F+ cell numbers, ratio N(TGF)/N(CON)","[3]; day 7, treatment day 0-4, median",1
same,F+ population level versus controls,"[3]; on average, with increasing culture time, treatment day 0-4",ca. 10 fold
same,effect on cytokine-dependent proliferation (secondary colony numbers),[4],did not interfere with cytokine-dependent proliferation
same,relative F+ cell numbers,[5],increase in relative F+ cell numbers
same,growth of newly developing secondary colonies,"[1]; added from day 7, after approximately 2 days of treatment, 8-16-cell stage",complete and lasting growth arrest
same,effect on F+ proportions when added at later culture phase,[1]; newly supplied beginning on day 7,no effect on F+ proportions
same,proportions of F+ cells after exposure for only one day,[1]; one day exposure between days 2 and 4,substantially increased
"TGF-beta 2: form of transforming growth factor beta titrated against TGF-beta 1 (protein, UniProt P61812 303-414, looked up, Transforming growth factor beta-2) Transforming growth factor …: ALDAAYCFRNVQDNCCLRPLYIDFKRDLGWKWIHEPKGYNANFCAGACPYLWSSDTQHSRVLSLYNTINPEASASPCCVSQDLEPLTILYYIGKTPKIEQLSNMIVKSCKCS",relative effectiveness versus TGF-beta 1 to increase proportions of F+ cells,"[1]; titration, treatment began day 2, re-seeded day 4, F+ on day 7, average of two experiments",~100 times
